Measurements as given in patent publication US12539285B2, “Therapeutic agent for hypertrophic cardiomyopathy” (JUNTENDO EDUCATIONAL FOUNDATION, priority 2021, dated 2026).

Tests used:
[1] = system: myocardial cells derived from iPS cells of hypertrophic cardiomyopathy patient (MYH7 R403Q); test: Myocardial relaxation rate (SONY SI8000) in HCM patient iPS-derived myocardial cells; format: cell-based; conditions: ALA/SFC 10 μM/5 μM, 30 μM/1 μM, 100 μM/50 μM; measured Day 20 and Day 26 vs before administration (Day 15); FIG. 1
Description: (§1) Myocardial cells differentiated from iPS cells derived from hypertrophic cardiomyopathy patient were purchased, seeded, and cultured and were then administered with 5-aminolevulinic acid and sodium ferrous citrate (ALA/SFC). As myocardial cells, […] Cardiomyocytes (MYH7 R403Q) (C1081, cat. #556-34781) (FUJIFILM Cellular Dynamics, Inc.) was used. As a control, myocardial cells derived from iPS cells of normal subject (Cell Cardiomyocytes (Control) (C1056, cat. #551-33491) (FUJIFILM Cellular Dynamics, Inc.) was used. As the culture medium for cell seeding, (iCell Plating medium (M1001, cat. #550-33581) (FUJIFILM Cellular Dynamics, Inc.) was used.
(§2) In the cell culture, as the culture medium, iCell Maintenance medium (M1003, cat. #557-3359I) (FUJIFILM Cellular Dynamics, Inc.) was used.
(§3) • Day 1: Cell seeding (myocardial cells derived from iPS cells of hypertrophic cardiomyopathy patient, myocardial cells derived from iPS cells of normal subject). The cells were seeded at 3×10^4 per well in a 96-well plastic plate (nunc); • Day 15: The relaxation rate before administration was measured using SONY SI8000, and ALA/SFC were then administered on the same day at the following doses. The doses were four groups of 0 μM/0 μM, 10 μM/5 μM, 30 μM/1 μM, and 100 μM/50 μM of ALA/SFC for each of the disease myocardial cells and the normal myocardial cells. […]

[2] = system: myocardial cells derived from iPS cells of normal subject; test: Myocardial relaxation rate (SONY SI8000) in normal myocardial cells; format: cell-based; conditions: ALA/SFC 10 μM/5 μM, 30 μM/1 μM, 100 μM/50 μM; measured Day 20 and Day 26 vs before administration (Day 15); FIG. 2
Description: as §1, §2, §3

[3] = system: myocardial cells derived from iPS cells of hypertrophic cardiomyopathy (HCM) patient; test: Fluorescent calcium imaging, peak width of Ca-imaging waveform; format: cell-based; conditions: 10 μM and 30 μM 5-aminolevulinic acid added from 7th day after seeding; FIG. 4
From the text: The determinant of the myocardial relaxation rate is the dissociation rate of myosin and actin, and one of factors of determining the dissociation rate is the Ca^2+ uptake function of ATPase present in the longitudinal tubules of sarcoplasmic reticulum. Accordingly, using the above-mentioned myocardial cells derived from iPS cells of hypertrophic cardiomyopathy (HCM) patient, the peak width of a Ca-imaging waveform, which reflects the disappearance rate of Ca^2+ in myocardial cells (i.e., the uptake rate of Ca^2+ into the sarcoplasmic reticulum) by addition of 5-aminolevulinic acid, was measured. […]
As the measurement apparatus for high content analysis, CQ1 Image Cytometer of Yokogawa Electric Corporation was used, and the measurement was performed with excitation light of 488 nm and fluorescence at 500 to 550 nm (spinning-disk confocal unit with microlens array). […]
Over the entire screen of the obtained image data, the fluorescence intensity was digitized over time to obtain fluorescence waveforms. […] The parameters calculated from a waveform were the line width (sec) at each of 10%, 20%, 30%, 50%, 70%, and 90% of the waveform height, the length (sec) of interval between each wave, and the fluorescence intensity (ΔF).

[4] = system: zebrafish cardiomyopathy model (myocardial troponin T knockdown (tnnt2a KD)); test: Zebrafish cardiomyopathy model (tnnt2a KD), peak filling rate by heart imaging; format: in vivo; conditions: ALA/SFC 100 μM/50 μM in culture solution, DAY 0-2, imaging DAY 3; FIG. 5
From the text: A synthetic nucleic acid, morpholino antisense oligo (MO), which inhibits translation of zebrafish myocardial troponin T (tnnt2a), was used. The target sequence of tnnt2a-MO used for producing this cardiomyopathy model was 5′-[…]-3′ (SEQ ID NO: 1), and the target sequence of standard control MO (Control-MO) used as a negative control was 5′-[…]-3′ (SEQ ID NO: 2). Both MOs used were produced by Certified GeneTool, Inc. Standard control MO (Lis-MO) having the 3′ terminal labeled with a red fluorescent material, Lissamine, was used as an internal standard substance. An MO powder diluted with nuclease free water to 1 mM was used as a stock solution, and the final concentrations of the tnnt2a-MO and Control-MO were adjusted to 1.2 μM and the final concentration of Lis-MO was adjusted to 50 μM, using nuclease free water as a working solution for microinjection. […]
The acquired moving image was converted into sequence images, and the ventricular outline in each frame was recorded as Region of Interest (ROT). Subsequently, the major and minor axes of an ellipse approximating to the ROI on each sequence image were measured by Fit-to-Ellipse algorithm, the volume of the spheroid of each sequence image was calculated as a ventricular volume, and the peak filling rate (PFR: diastolic function) was measured from the rate of change in the obtained ventricular volume.

SMILES: NCC(=O)CCC(=O)O [5-aminolevulinic acid]
- relaxation rate of myocardial cells in hypertrophic cardiomyopathy [1]: noticeably increased
- relaxation rate in normal myocardial cells [2]: did not increase
- peak width at 50% of the height of a Ca-imaging waveform (uptake of Ca2+ into sarcoplasmic reticulum) [3]: obviously reduced
- left ventricular diastolic function (peak filling rate, PFR) [4]: improved
